Results from US8697641B2, “4-amino-4-oxobutanoyl peptide cyclic analogues, inhibitors of viral replication” (Achillion Pharmaceuticals, Inc., priority 2008, dated 2014).

tested on: Hepatitis C replicon; assay: HCV replicon assay (NPT ELISA readout) in Huh-7 replicon-containing cells; type: cell-based, Hepatitis C virus; conditions: Hepatitis C virus, 72 h; HCV replicon in Huh-7 cells, three days incubation
Summary of the method: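 Replication is measured as neomycin phosphotransferase level by captured ELISA after three days of compound exposure (typically 10 to 0.03 μM, 6 concentrations) at 37 °C. Cells are Huh-7 harbouring an HCV replicon with neo gene and NS3-NS5B; interferon alpha is the positive control.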

Row | SMILES | EC50 [µM]
1 | COc1ccc2nc(-c3ccccn3)cc(C(=O)N[C@@H]3C[C@H]4C(=O)N[C@]5(C(=O)NS(=O)(=O)C6CC6)C[C@H]5/C=C\CCCCC[C@H](CC(=O)N5CCC(F)(F)C5)C(=O)N4C3)c2c1 [Compound 98, (2R,6R,14aR,16aS,Z)-N-(cyclopropylsulfonyl)-6-(2-(3,3-difluoropyrrolidin-1-yl)-2-oxoethyl)-2-(6-methoxy-2-(pyridin-2-yl)quinoline-4-carboxamido)-5,16-dioxo-1,2,3,5,6,7,8,9,10,11, 13a,14,14a,15,16,16a-hexadecahydrocyclopropa [e]pyrrolo[1,2-a][1,4] diazacyclopentadecine-14a-carboxamide] | < 1
2 | COc1ccc2c(O[C@@H]3C[C@H]4C(=O)N[C@]5(C(=O)NS(=O)(=O)C6CC6)C[C@H]5/C=C\CCCCC[C@H](CC(=O)N5CC[C@H](N)C5)C(=O)N4C3)cc(-c3ccccc3)nc2c1 [Compound 102, (2R,6R,14aR,16aS, Z)-6-(2-((S)-3-aminopyrrolidin-1-yl)-2-oxoethyl)-N-(cyclopropylsulfonyl)-2-(7-methoxy-2-phenylquinolin-4-yloxy)-5,16-dioxo-1,2,3,5,6,7,8,9,10,11, 13a,14,14a,15,16,16a-hexadecahydrocyclopropa [e]pyrrolo[1,2-a][1,4] diazacyclopentadecine-14a-carboxamide] | < 1
3 | COc1ccc2c(O[C@@H]3C[C@H]4C(=O)N[C@@H](C(=O)NS(=O)(=O)C5CC5)C/C=C\CCCCC[C@H](CC(=O)N5CCCCC5)C(=O)N4C3)cc(-c3ccccc3)nc2c1 [Compound 56, (3R,12R,16R,17aS, Z)-N-(cyclopropylsulfonyl)-16-(7-methoxy-2-phenylquinolin-4-yloxy)-1,13-dioxo-12-(2-oxo-2-(piperidin-1-yl)ethyl)-2,3,4,7,8,9,10,11, 12,13,15,16,17,17a-tetradecahydro-1H-pyrrolo[1,2-a][1,4] diazacyclopentadecine-3-carboxamide] | 1 to 10
4 | COc1ccc2c(O[C@@H]3C[C@H]4C(=O)N[C@]5(C(=O)NS(=O)(=O)C6CC6)C[C@H]5/C=C\CCCCC[C@H](CC(=O)N5CCC(C(F)(F)F)CC5)C(=O)N4C3)cc(-c3ccccc3)nc2c1 [Compound 62, (2R,6R,13aS, 14aR,16aS,Z)-N-(cyclopropylsulfonyl)-2-(7-methoxy-2-phenylquinolin-4-yloxy)-5,16-dioxo-6-(2-oxo-2-(4-(trifluoromethyl)piperidin-1-yl)ethyl)-1,2,3,5,6,7,8,9,10,11, 13a,14,14a,15,16,16a-hexadecahydrocyclopropa [e]pyrrolo[1,2-a][1,4] diazacyclopentadecine-14a-carboxamide] | < 1
5 | O=C1N[C@]2(C(=O)NS(=O)(=O)C3CC3)C[C@H]2/C=C\CCCCC[C@H](CC(=O)N2CCCC(F)(F)C2)C(=O)N2C[C@H](OC(=O)N3CCc4ccccc4C3)C[C@@H]12 [Compound 113, (2R,6R,14aR, 16aS,Z)-14a-(cyclopropylsulfonyl-carbamoyl)-6-(2-(3,3-difluoropiperidin-1-yl)-2-oxoethyl)-5,16-dioxo-1,2,3,5,6,7,8,9,10,11, 13a,14,14a,15,16,16a-hexadecahydrocyclopropa [e]pyrrolo[1,2-a][1,4] diazacyclopentadecin-2-yl 3,4-dihydroisoquinoline-2(1H)-carboxylate] | < 1
6 | COc1ccc2c(O[C@@H]3C[C@H]4C(=O)N[C@]5(C(=O)NS(=O)(=O)C6CC6)C[C@H]5/C=C\CCCCC[C@H](CC(=O)N5CCC(C(F)(F)F)CC5)C(=O)N4C3)nccc2c1Cl [Compound 124] | < 1
